PubChem BioAssay AID248 (DTP/NCI, 2004)
Values joined by “and” are separate entries in the source; they are usually repeats but may differ in a detail not shown here. Identical values can stand only once. Inconclusive results and toxic doses are left out. Cut-off read from the data, not from the text of the source: active = T/C of 150% or more; inactive = T/C below 125%.

Tested on: L1210 leukemia ip in BDF1 mice, survival T/C
Experiment: NCI In Vivo Anticancer Drug Screen. Data for tumor model L1210 Leukemia (intraperitoneal) in B6D2F1 (BDF1) mice
Conditions: endpoint: mean survival time, higher = longer survival
Procedure, shortened: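 Value reflects the ratio of survival in compound-treated mice to survival in vehicle-treated controls, with both groups carrying the same transplanted tumor.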

[1] = dose: 75.0 mg/kg/injection, schedule: Q01DX001 (ip), vehicle: saline
[2] = dose: 150.0 mg/kg/injection, schedule: Q01DX001 (ip), vehicle: saline
[3] = dose: 100.0 mg/kg/injection, schedule: Q01DX009 (ip), vehicle: Klucel (hydroxypropylcellulose) (HPC)
[4] = dose: 100.0 mg/kg/injection, schedule: Q04DX003 (ip), vehicle: Klucel (hydroxypropylcellulose) (HPC)
[5] = dose: 200.0 mg/kg/injection, schedule: Q04DX003 (ip), vehicle: Klucel (hydroxypropylcellulose) (HPC)
[6] = dose: 400.0 mg/kg/injection, schedule: Q04DX003 (ip), vehicle: Klucel (hydroxypropylcellulose) (HPC)
[7] = dose: 100.0 mg/kg/injection, schedule: Q04DX002 (ip), vehicle: Klucel (hydroxypropylcellulose) (HPC)
[8] = dose: 200.0 mg/kg/injection, schedule: Q04DX002 (ip), vehicle: Klucel (hydroxypropylcellulose) (HPC)
[9] = dose: 50.0 mg/kg/injection, schedule: Q04DX002 (ip), vehicle: Klucel (hydroxypropylcellulose) (HPC)
[10] = dose: 50.0 mg/kg/injection, schedule: Q01DX001 (ip), vehicle: carboxymethylcellulose (CMC)
[11] = dose: 100.0 mg/kg/injection, schedule: Q01DX001 (ip), vehicle: carboxymethylcellulose (CMC)
[12] = dose: 200.0 mg/kg/injection, schedule: Q01DX001 (ip), vehicle: carboxymethylcellulose (CMC)
[13] = dose: 400.0 mg/kg/injection, schedule: Q01DX001 (ip), vehicle: carboxymethylcellulose (CMC)
[14] = dose: 100.0 mg/kg/injection, schedule: Q01DX001 (ip), vehicle: saline
[15] = dose: 200.0 mg/kg/injection, schedule: Q01DX001 (ip), vehicle: saline
[16] = dose: 400.0 mg/kg/injection, schedule: Q01DX001 (ip), vehicle: saline

Measured: T/C

Cc1cc2c(cc1C)N(C(=O)CN1CCSCC1)CC(=O)N2
inactive: [1] 107 % of control | dose: 75.0 mg/kg/injection, schedule: Q04DX003 (ip), vehicle: saline 93 % of control | [2] 98 % of control | dose: 150.0 mg/kg/injection, schedule: Q04DX003 (ip), vehicle: saline 94 % of control | dose: 300.0 mg/kg/injection, schedule: Q01DX001 (ip), vehicle: saline 109 % of control | dose: 300.0 mg/kg/injection, schedule: Q04DX003 (ip), vehicle: saline 91 % of control

CCCCC(CC)NC(=O)c1ccc(OC)cc1 (configuration not stated)
inactive: dose: 12.5 mg/kg/injection, schedule: Q01DX009 (ip), vehicle: Klucel (hydroxypropylcellulose) (HPC) 106 % of control | dose: 25.0 mg/kg/injection, schedule: Q01DX009 (ip), vehicle: Klucel (hydroxypropylcellulose) (HPC) 101 % of control | dose: 25.0 mg/kg/injection, schedule: Q04DX003 (ip), vehicle: Klucel (hydroxypropylcellulose) (HPC) 105 % of control | dose: 50.0 mg/kg/injection, schedule: Q01DX009 (ip), vehicle: Klucel (hydroxypropylcellulose) (HPC) 95 % of control | dose: 50.0 mg/kg/injection, schedule: Q04DX003 (ip), vehicle: Klucel (hydroxypropylcellulose) (HPC) 103 % of control | [3] 101 % of control | [4] 100 % of control | [5] 103 % of control | [6] 100 % of control

N/C(=N/N=C\c1ccccc1Cl)N/N=C/c1ccccc1Cl
inactive: dose: 15.0 mg/kg/injection, schedule: Q01DX Z (ip), vehicle: carboxymethylcellulose (CMC) 94 % of control | dose: 30.0 mg/kg/injection, schedule: Q01DX Z (ip), vehicle: carboxymethylcellulose (CMC) 100 % of control | dose: 60.0 mg/kg/injection, schedule: Q01DX Z (ip), vehicle: carboxymethylcellulose (CMC) 95 % of control | dose: 120.0 mg/kg/injection, schedule: Q01DX Z (ip), vehicle: carboxymethylcellulose (CMC) 94 % of control | dose: 120.0 mg/kg/injection, schedule: Q01DX Z (oral), vehicle: carboxymethylcellulose (CMC) 100 % of control | dose: 240.0 mg/kg/injection, schedule: Q01DX Z (oral), vehicle: carboxymethylcellulose (CMC) 100 % of control | dose: 960.0 mg/kg/injection, schedule: Q01DX Z (oral), vehicle: carboxymethylcellulose (CMC) 101 % of control

Clc1ccc2[nH]ncc2c1
inactive: [7] 88 % of control | [8] 98 % of control | dose: 400.0 mg/kg/injection, schedule: Q04DX002 (ip), vehicle: Klucel (hydroxypropylcellulose) (HPC) 98 % of control

Cc1ccc(CNc2ccc(Br)cc2)cc1
inactive: [3] 96 % of control | [4] 101 % of control | dose: 200.0 mg/kg/injection, schedule: Q01DX009 (ip), vehicle: Klucel (hydroxypropylcellulose) (HPC) 99 % of control | [5] 102 % of control | dose: 400.0 mg/kg/injection, schedule: Q01DX009 (ip), vehicle: Klucel (hydroxypropylcellulose) (HPC) 94 % of control | [6] 101 % of control

O=C(c1ccccc1)c1ccc(O)c([N+](=O)[O-])c1
inactive: dose: 25.0 mg/kg/injection, schedule: Q04DX002 (ip), vehicle: Klucel (hydroxypropylcellulose) (HPC) 113 % of control | [9] 100 % of control | [7] 90 % of control

C1=CC2(CC=C1C1=CCC3(C=C1)SCCS3)SCCS2
inactive: [9] 108 % of control | [7] 101 % of control | [8] 104 % of control

CC(C)(C)C1CCC2(CC1)CCN(N1CCCCCC1)CC2
inactive: [10] 101 % of control | [11] 111 % of control | [12] 95 % of control | [13] 103 % of control

Cc1cc(C)c(S(N)(=O)=O)c(C)c1
inactive: [9] 94 % of control | [7] 107 % of control | [8] 94 % of control

CCc1c(C)nnn1-c1ccccc1
inactive: [1] 94 % of control | [2] 91 % of control

CNC(=O)C1OC(n2cnc3c(N)ncnc32)C2OC(C)(C)OC12 (configuration not stated)
inactive: dose: 100.0 mg/kg/injection, schedule: Q01DX005 (ip), vehicle: saline 97 % of control | dose: 200.0 mg/kg/injection, schedule: Q01DX005 (ip), vehicle: saline 101 % of control

CCCCCCCN(CCCCCCC)C(=O)N(C)C
inactive: dose: 100.0 mg/kg/injection, schedule: Q04DX002 (sc), vehicle: olive oil, sesame oil, peanut oil 104 % of control | dose: 200.0 mg/kg/injection, schedule: Q04DX002 (sc), vehicle: olive oil, sesame oil, peanut oil 107 % of control | dose: 400.0 mg/kg/injection, schedule: Q04DX002 (sc), vehicle: olive oil, sesame oil, peanut oil 114 % of control

CCOC(=O)C(C)C(=O)C(=O)N=C(N)N (configuration not stated)
inactive: dose: 100.0 mg/kg/injection, schedule: Q01DX009 (ip), vehicle: saline 102 % of control | dose: 100.0 mg/kg/injection, schedule: Q04DX003 (ip), vehicle: saline 101 % of control and 103 % of control | dose: 200.0 mg/kg/injection, schedule: Q01DX009 (ip), vehicle: saline 100 % of control | dose: 200.0 mg/kg/injection, schedule: Q04DX003 (ip), vehicle: saline 97 % of control | dose: 400.0 mg/kg/injection, schedule: Q01DX009 (ip), vehicle: saline 100 % of control | dose: 400.0 mg/kg/injection, schedule: Q04DX003 (ip), vehicle: saline 103 % of control and 104 % of control

CC(=O)c1c(C)cc(=O)[nH]c1O
inactive: [14] 107 % of control | [15] 97 % of control | [16] 110 % of control

CC1(C)CCOC(C2OCCC(C)(C)O2)O1 (configuration not stated)
inactive: dose: 50.0 mg/kg/injection, schedule: Q01DX009 (ip), vehicle: acetone 113 % of control | dose: 100.0 mg/kg/injection, schedule: Q01DX009 (ip), vehicle: acetone 93 % of control | dose: 200.0 mg/kg/injection, schedule: Q01DX009 (ip), vehicle: acetone 98 % of control

C=CC1CN2CCC1CC2C(OC(C)=O)c1ccnc2ccc(OC)cc12 (configuration not stated)
inactive: [10] 97 % of control | [11] 101 % of control | [12] 97 % of control | [13] 92 % of control

CN(C)c1ccc(/C=N/Nc2nnc(N/N=C/c3ccc(N(C)C)cc3Cl)c3ccccc23)c(Cl)c1
inactive: dose: 50.0 mg/kg/injection, schedule: Q01DX001 (ip), vehicle: saline 102 % of control | [14] 100 % of control | [15] 100 % of control | [16] 92 % of control

Cc1cc(CCN)c(C)c2c1sc1ccccc12
inactive: [1] 89 % of control

CC(=O)Nc1nc(Cl)c([N+](=O)[O-])c(Cl)n1
inactive: dose: 3.12 mg/kg/injection, schedule: Q04DX002 (ip), vehicle: Klucel (hydroxypropylcellulose) (HPC) 103 % of control | dose: 6.25 mg/kg/injection, schedule: Q04DX002 (ip), vehicle: Klucel (hydroxypropylcellulose) (HPC) 100 % of control | dose: 12.5 mg/kg/injection, schedule: Q01DX001 (ip), vehicle: Klucel (hydroxypropylcellulose) (HPC) 92 % of control | dose: 12.5 mg/kg/injection, schedule: Q04DX002 (ip), vehicle: Klucel (hydroxypropylcellulose) (HPC) 103 % of control

O=C(O)c1cc(Br)sc1Br
inactive: [11] 101 % of control | [12] 95 % of control | [13] 95 % of control

COC1OC2COC(C2OS(=O)(=O)c2ccc(C)cc2)C1OS(=O)(=O)c1ccc(C)cc1 (configuration not stated)
inactive: [9] 94 % of control | [7] 94 % of control | [8] 98 % of control
